Measured values from EPA's ToxValDB 9.5 (doi:10.2903/j.efsa.2009.239r).
Values after ≈ are worked out from the molar mass of the structure shown.

Key:
[1] = system: Tagia sp.; conditions: acute; duration: 14 days; mortality
[2] = system: Chrysoperla externa; conditions: not reported; mortality
[3] = system: Bibionidae; conditions: chronic/long-term; duration: 28 days
[4] = system: Canidae; conditions: oral, Dog Other, clinical signs
[5] = system: Daphnia magna; conditions: acute; duration: 48 hours; mortality
[6] = system: Lepomis macrochirus; conditions: acute; duration: 96 hours; mortality
[7] = system: Anas platyrhynchos; conditions: oral, mortality
[8] = system: Rattus norvegicus
[9] = system: Apis mellifera; conditions: acute; duration: 48 hours; dermal; mortality
[10] = system: Colinus virginianus
[11] = system: Coturnix japonica; conditions: acute, oral, mortality
[12] = system: Hypoaspis aculeifer; conditions: chronic/long-term, duration: 14 days

CCOC(=O)CCN(SN(C)C(=O)Oc1cccc2c1OC(C)(C)C2)C(C)C [Benfuracarb]
LC50 [1]: 58 mg/kg | NOEC [1]: < 10 mg/kg | LD50 [2]: 5.2 g/ha | NOEC [3]: 0.001 mg/L | NOAEL ([4]; chronic, duration: 6 months): 1 mg/kg-day | NOAEL ([4]; chronic, duration: 24 months): 1 mg/kg-day | NOAEL ([4]; subchronic, duration: 13 weeks): 1 mg/kg-day | LC50 [5]: 0.0099 µg/mL (≈ 0.0241 µM) | LC50 [6]: 0.017 µg/mL (≈ 0.0414 µM) | LD50 ([7]; acute, unspecified): 19.8 mg/kg-day | LC50 ([7]; short-term, feed): 15 mg/kg-day | LD50 ([8]; acute, oral, mortality): 205 mg/kg-day | NOAEL ([8]; reproduction developmental, reproduction): 1.2 mg/kg-day | NOAEL ([8]; short-term, duration: 28 days, clinical signs): 1.8 mg/kg-day | LD50 [9]: 0.19 µg/piece | LC50 ([10]; acute, oral, diet, mortality): 179 mg/kg-day | NOEL ([10]; reproduction developmental): 8.93 mg/kg-day | LD50 ([11]; F): 39.9 mg/kg-day | LD50 ([11]; M): 48.3 mg/kg-day | LEL ([12]; mortality): 1000 g/ha | LEL ([12]; reproduction): 1000 g/ha
